Reference: ChEMBL document CHEMBL5291721, “A preclinical secondary pharmacology resource illuminates target-adverse drug reaction associations of marketed drugs” (Nat Commun, 2023)

Columns and labels:
[1] = target: T1, Muscarinic acetylcholine receptor M2 (Homo sapiens, UniProt P08172); type: functional, cell-based
T1 sequence (P08172 whole entry): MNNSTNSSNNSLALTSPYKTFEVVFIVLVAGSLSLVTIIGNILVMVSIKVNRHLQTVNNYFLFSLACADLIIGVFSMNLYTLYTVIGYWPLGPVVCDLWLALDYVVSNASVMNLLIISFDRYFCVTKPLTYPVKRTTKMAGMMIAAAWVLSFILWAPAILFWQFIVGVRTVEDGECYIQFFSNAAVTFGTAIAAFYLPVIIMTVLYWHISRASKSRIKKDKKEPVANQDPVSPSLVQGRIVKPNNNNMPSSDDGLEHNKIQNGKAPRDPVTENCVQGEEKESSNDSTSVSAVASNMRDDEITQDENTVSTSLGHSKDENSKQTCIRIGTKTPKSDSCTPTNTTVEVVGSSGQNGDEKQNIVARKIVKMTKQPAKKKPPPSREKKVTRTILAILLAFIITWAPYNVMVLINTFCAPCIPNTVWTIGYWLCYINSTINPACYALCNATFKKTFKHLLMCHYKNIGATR

Estrogen receptor = target: T2, Estrogen receptor (Homo sapiens, UniProt P03372)
T2 sequence (P03372 whole entry): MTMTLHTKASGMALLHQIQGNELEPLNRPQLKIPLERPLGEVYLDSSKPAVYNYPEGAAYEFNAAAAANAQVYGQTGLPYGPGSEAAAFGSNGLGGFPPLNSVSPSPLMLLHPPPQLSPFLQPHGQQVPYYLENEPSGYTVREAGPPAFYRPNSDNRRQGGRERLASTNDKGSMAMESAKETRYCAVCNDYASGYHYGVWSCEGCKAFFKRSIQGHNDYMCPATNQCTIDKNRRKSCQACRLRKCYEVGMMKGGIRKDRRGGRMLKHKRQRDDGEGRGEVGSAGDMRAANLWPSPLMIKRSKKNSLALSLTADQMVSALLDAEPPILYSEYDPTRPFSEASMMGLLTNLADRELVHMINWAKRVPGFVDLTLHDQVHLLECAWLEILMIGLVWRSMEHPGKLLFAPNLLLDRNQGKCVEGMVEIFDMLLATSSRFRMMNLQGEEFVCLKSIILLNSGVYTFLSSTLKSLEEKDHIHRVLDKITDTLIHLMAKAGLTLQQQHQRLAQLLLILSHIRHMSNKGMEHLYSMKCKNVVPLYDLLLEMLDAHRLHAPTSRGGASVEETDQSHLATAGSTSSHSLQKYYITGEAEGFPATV

[2] = target: T3, Alpha-1A adrenergic receptor (Homo sapiens, UniProt P35348); type: functional, cell-based
T3 sequence (P35348 whole entry): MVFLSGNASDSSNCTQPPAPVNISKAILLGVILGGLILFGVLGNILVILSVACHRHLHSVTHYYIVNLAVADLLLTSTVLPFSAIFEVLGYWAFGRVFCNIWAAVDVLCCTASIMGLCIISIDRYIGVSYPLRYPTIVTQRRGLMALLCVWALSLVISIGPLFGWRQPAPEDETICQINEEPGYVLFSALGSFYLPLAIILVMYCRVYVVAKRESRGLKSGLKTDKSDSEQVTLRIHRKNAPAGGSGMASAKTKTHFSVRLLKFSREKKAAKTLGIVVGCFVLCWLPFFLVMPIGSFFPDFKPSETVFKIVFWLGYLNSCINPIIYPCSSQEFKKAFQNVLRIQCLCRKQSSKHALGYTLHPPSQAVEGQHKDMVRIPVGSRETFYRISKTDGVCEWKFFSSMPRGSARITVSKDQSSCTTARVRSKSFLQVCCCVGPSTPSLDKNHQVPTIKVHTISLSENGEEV

[3] = target: T4, Amine oxidase [flavin-containing] A (Homo sapiens, UniProt P21397); type: functional
T4 sequence (P21397 whole entry): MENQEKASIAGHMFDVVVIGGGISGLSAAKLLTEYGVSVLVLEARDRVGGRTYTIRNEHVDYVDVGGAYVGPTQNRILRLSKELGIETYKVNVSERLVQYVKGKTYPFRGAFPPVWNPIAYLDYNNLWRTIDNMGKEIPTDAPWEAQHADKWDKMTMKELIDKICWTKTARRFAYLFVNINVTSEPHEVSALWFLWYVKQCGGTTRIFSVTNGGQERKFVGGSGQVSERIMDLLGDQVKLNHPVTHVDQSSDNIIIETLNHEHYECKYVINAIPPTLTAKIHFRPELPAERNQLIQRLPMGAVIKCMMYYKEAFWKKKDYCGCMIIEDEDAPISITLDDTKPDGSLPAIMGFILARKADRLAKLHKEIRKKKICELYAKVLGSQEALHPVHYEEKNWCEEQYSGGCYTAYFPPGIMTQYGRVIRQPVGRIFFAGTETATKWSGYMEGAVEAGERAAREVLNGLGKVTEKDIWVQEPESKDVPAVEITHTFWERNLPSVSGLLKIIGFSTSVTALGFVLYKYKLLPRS

[4] = target: Kappa-type opioid receptor (Homo sapiens, UniProt P41145)
[5] = target: Gamma-aminobutyric acid receptor subunit alpha-1 (Rattus norvegicus, UniProt P62813)
[6] = target: T5, Equilibrative nucleoside transporter 1 (Homo sapiens, UniProt Q99808)
T5 sequence (Q99808 whole entry): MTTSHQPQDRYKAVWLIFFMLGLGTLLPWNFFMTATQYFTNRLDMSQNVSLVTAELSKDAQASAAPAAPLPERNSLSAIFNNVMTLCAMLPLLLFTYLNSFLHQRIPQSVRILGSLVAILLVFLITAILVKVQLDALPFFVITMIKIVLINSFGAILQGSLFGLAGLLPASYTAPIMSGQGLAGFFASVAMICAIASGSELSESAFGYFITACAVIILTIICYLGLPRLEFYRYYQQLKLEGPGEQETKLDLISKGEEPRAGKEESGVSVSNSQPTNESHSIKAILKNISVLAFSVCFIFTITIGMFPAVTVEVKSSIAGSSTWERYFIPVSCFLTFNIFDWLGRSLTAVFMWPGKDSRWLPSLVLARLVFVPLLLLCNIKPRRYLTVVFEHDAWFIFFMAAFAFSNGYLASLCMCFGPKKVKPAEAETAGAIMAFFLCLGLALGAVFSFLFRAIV

Motilin receptor = Motilin receptor (Homo sapiens, UniProt O43193)
[7] = target: Delta-type opioid receptor (Homo sapiens, UniProt P41143)
[8] = target: Beta-2 adrenergic receptor (Homo sapiens, UniProt P07550); type: functional, cell-based
Cannabinoid receptor 1 = Cannabinoid receptor 1 (Homo sapiens, UniProt P21554); type: functional, cell-based
Further: assay procedure not described here.

Chain of Cannabinoid receptor 1 (P21554 whole entry): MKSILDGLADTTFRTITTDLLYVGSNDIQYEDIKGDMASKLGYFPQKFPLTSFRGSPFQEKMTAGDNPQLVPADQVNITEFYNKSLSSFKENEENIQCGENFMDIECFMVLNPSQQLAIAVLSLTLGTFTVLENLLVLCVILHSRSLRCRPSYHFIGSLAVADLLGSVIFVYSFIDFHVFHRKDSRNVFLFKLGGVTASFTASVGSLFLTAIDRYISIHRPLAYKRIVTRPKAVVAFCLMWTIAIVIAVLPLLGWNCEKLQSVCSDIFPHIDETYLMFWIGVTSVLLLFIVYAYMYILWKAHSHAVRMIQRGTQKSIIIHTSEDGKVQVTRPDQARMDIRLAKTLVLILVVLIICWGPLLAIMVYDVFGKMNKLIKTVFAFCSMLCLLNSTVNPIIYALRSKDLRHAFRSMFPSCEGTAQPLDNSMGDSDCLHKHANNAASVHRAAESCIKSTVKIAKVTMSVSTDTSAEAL
Chain of Gamma-aminobutyric acid receptor subunit alpha-1 (P62813 whole entry): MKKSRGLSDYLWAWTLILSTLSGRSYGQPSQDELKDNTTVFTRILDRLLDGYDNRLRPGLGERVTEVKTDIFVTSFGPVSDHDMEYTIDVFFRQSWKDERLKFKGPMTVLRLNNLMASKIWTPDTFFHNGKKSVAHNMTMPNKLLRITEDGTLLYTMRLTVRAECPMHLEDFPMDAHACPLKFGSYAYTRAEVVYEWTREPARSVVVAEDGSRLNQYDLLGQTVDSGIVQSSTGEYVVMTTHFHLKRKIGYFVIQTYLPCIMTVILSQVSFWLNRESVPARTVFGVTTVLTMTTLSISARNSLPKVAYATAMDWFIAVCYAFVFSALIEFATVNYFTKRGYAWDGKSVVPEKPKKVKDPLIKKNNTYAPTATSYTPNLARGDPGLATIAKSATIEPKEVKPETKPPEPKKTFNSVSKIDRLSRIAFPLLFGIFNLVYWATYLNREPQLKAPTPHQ
Chain of Beta-2 adrenergic receptor (P07550 whole entry): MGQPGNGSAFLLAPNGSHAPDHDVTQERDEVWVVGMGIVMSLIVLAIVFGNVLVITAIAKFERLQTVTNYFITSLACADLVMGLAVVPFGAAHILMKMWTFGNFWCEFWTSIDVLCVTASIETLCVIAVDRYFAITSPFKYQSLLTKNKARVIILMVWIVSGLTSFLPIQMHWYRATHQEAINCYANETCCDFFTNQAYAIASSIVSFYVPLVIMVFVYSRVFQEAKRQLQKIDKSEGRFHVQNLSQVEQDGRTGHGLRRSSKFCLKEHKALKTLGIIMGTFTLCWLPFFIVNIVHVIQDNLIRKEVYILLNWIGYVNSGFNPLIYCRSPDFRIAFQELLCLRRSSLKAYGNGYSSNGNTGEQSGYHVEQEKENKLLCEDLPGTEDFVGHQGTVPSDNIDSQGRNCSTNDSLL
Chain of Kappa-type opioid receptor (P41145 whole entry): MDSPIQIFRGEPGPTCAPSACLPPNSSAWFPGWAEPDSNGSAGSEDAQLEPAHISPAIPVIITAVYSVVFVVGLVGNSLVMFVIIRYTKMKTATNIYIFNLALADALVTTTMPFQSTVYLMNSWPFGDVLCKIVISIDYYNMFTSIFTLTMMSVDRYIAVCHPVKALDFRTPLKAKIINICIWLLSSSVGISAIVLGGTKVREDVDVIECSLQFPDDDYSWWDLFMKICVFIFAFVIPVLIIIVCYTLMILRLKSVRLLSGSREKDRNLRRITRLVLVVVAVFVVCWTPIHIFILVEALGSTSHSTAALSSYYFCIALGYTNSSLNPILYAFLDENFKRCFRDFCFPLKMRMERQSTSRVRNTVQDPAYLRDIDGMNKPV
Chain of Delta-type opioid receptor (P41143 whole entry): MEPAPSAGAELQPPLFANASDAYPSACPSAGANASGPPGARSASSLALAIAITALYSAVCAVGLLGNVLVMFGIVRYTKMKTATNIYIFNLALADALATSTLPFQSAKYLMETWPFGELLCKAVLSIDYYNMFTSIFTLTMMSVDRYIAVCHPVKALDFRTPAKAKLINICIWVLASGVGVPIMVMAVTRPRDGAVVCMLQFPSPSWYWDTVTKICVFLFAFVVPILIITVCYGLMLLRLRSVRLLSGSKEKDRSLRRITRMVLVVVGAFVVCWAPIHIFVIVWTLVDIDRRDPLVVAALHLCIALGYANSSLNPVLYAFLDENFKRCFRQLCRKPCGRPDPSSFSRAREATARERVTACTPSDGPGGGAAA
Chain of Motilin receptor (O43193 whole entry): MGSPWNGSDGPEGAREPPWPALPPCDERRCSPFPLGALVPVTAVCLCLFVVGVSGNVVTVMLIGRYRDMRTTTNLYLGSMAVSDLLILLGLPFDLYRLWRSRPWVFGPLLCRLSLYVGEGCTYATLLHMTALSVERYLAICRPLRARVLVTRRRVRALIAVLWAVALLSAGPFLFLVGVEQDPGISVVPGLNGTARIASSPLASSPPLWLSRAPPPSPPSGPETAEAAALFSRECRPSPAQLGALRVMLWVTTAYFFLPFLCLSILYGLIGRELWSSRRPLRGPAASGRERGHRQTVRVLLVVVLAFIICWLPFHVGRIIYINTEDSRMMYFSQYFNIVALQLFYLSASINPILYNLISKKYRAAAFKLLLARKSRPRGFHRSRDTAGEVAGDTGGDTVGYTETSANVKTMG

Compound	AC50 [1] [µM]	AC50 (Estrogen receptor) [µM]	AC50 [2] [µM]	AC50 [3] [µM]	AC50 [4] [µM]	AC50 [5] [µM]	AC50 [6] [µM]	AC50 (Motilin receptor) [µM]	AC50 [7] [µM]	AC50 [8] [µM]	AC50 (Cannabinoid receptor 1) [µM]
Cc1cc(C2CCCCC2)n(O)c(=O)c1 [CICLOPIROX]	> 30	> 30	> 30	> 30							
CC[C@@H](CO)NC(=O)[C@@H]1C=C2c3cccc4c3c(cn4C)C[C@H]2N(C)C1 [METHYSERGIDE]	> 30			> 10	> 10	> 10	> 30	> 10	> 30	> 30	> 30
CC(C)[C@H](N)C(=O)OCCOCn1cnc2c(=O)[nH]c(N)nc21 [VALACYCLOVIR]	> 10		> 30	> 10	> 10	> 10	> 30	> 10	> 30	> 30	> 30
O=C(O)Cc1ccccc1Nc1c(Cl)cccc1Cl [DICLOFENAC]	> 10		> 30	> 10	> 10	> 10	> 30	> 10	> 30	> 30	> 30
CC(C)(O/N=C(\C(=O)N[C@@H]1C(=O)N2C(C(=O)[O-])=C(C[n+]3ccccc3)CS[C@H]12)c1csc(N)n1)C(=O)O [CEFTAZIDIME]	> 300		> 300	> 300	> 30		> 300	> 300	> 300	> 300	> 300
COc1ccccc1OC1(C)OC(=O)c2ccccc2O1 (configuration not stated) [GUAIMESAL]		> 30					> 30	> 30			
Cc1nnc(SCC2=C(C(=O)O)N3C(=O)[C@@H](NC(=O)Cn4cnnn4)[C@H]3SC2)s1 [CEFAZOLIN]	> 300		> 300	> 300	> 30		> 300	> 300	> 300	> 300	> 300
Clc1ccc(Cn2c(CN3CCCC3)nc3ccccc32)cc1 [CLEMIZOLE]	> 10		13	> 30			> 30	> 30	> 30	> 30	> 30
Cc1onc(-c2c(F)cccc2Cl)c1C(=O)N[C@@H]1C(=O)N2[C@@H]1SC(C)(C)[C@@H]2C(=O)O [FLOXACILLIN]	> 30		> 30	> 30			> 30	> 30	> 30	> 30	> 30
CC(C)Cc1ccc([C@H](C)C(=O)O)cc1 [DEXIBUPROFEN]	> 30		> 30	> 30			> 30	> 30	> 30	> 30	> 30
S=P(N1CC1)(N1CC1)N1CC1 [THIOTEPA]			0.044	> 30			> 30	> 30	> 30	> 30	> 30
CCOc1cc([C@@H](CS(C)(=O)=O)N2C(=O)c3cccc(NC(C)=O)c3C2=O)ccc1OC	> 30		> 30	> 30			> 30	> 30	> 30	> 30	> 30
CC1(C)S[C@@H]2[C@H](NC(=O)C(C(=O)O)c3ccccc3)C(=O)N2[C@H]1C(=O)O (some centres not stated) [CARBENICILLIN]	> 30		> 30	> 30	> 30		> 30	> 30	> 30	> 30	> 30
Cc1nc(Nc2ncc(C(=O)Nc3c(C)cccc3Cl)s2)cc(N2CCN(CCO)CC2)n1 [DASATINIB]	> 30		10	> 30	> 10		> 30	> 30	9.76	> 30	> 30
Nc1c(CC(=O)O)cccc1C(=O)c1ccc(Br)cc1 [BROMFENAC]		> 30									
Cc1cc(=O)oc2cc(O)ccc12 [HYMECROMONE]		> 30									
C[Se]CC[C@H](N)C(=O)O [SELENOMETHIONINE]		> 30									
Nc1cccc2c1C(=O)N(C1CCC(=O)NC1=O)C2=O (configuration not stated) [POMALIDOMIDE]		> 30									
N=C(N)N/N=C/c1c(Cl)cccc1Cl [GUANABENZ]		> 30									
CCC1=C[C@@H]2CN(C1)Cc1c([nH]c3ccccc13)[C@@](C(=O)OC)(c1cc3c(cc1OC)N(C)[C@H]1[C@@](O)(C(=O)OC)[C@H](OC(C)=O)[C@]4(CC)C=CCN5CC[C@]31[C@@H]54)C2 [VINORELBINE]		> 30									
CC[C@@H]1C[C@]1(NC(=O)[C@@H]1C[C@@H]2CN1C(=O)[C@H](C(C)(C)C)NC(=O)OCC(C)(C)CCCCc1cccc3c1CN(C3)C(=O)O2)C(=O)NS(=O)(=O)C1CC1		> 30									
CC(CN1c2ccccc2Sc2ccccc21)N(C)C (configuration not stated) [PROMETHAZINE]	0.322		1.7	> 10		> 10	> 30	> 10	> 30	> 30	> 30
CC[C@H](C)C(=O)O[C@H]1C[C@@H](C)C=C2C=C[C@H](C)[C@H](CC[C@@H]3C[C@@H](O)CC(=O)O3)[C@H]21 [LOVASTATIN]	> 10			> 10	> 10	> 10	> 30	> 10	> 30	> 30	> 30
COc1ccc2[nH]c([S+]([O-])Cc3ncc(C)c(OC)c3C)nc2c1 (configuration not stated) [OMEPRAZOLE]		> 30									
